The results in this text go back to patent US8580825B2, “Oxadiazole inhibitors of leukotriene production” (Boehringer Ingelheim International GmbH, priority 2010, dated 2013).

The test system of assay [1] is synthesis of LTB4 in human whole blood. The assay can be described thus: human whole blood LTB4 production inhibition assay. It counts as cell-based. As to conditions: calcimycin stimulated, read-out: hWB LTB4 IC50. The method, boiled down:
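Whole-blood cellular format, heparinized human donors: 15 min compound pretreatment, then 30 min calcimycin stimulation (20 μM final), both at 37° C. Low-speed centrifugation yields plasma, in which LTB4 is read by homogeneous time-resolved fluorescence immunoassay.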

The target of assay [2] is T1, recombinant human FLAP protein (Homo sapiens, UniProt P20292).
T1 construct: made in house; host or cells: Sf9 insect cells (100,000xg membrane fraction used)
T1 sequence (P20292 1-161): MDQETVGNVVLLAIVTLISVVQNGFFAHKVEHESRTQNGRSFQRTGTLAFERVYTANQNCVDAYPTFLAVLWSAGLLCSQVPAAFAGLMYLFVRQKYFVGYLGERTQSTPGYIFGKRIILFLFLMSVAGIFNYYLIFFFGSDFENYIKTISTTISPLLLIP
Description: FLAP binding assay (Scintillation Proximity Assay, displacement of [125I]L-691,831). As to conditions: read-out: FLAP SPA IC50. The method, boiled down:
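Scintillation proximity displacement of [125I]L-691,831 (0.08 nM) from membranes of sf9 cells expressing recombinant human FLAP (5 μg/well) on WGA SPA beads, pH 7.5 Tris buffer. Plates shaken 2 h before counting. Non-specific binding defined with 10 μM unlabelled L-691,831.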

Take `C[C@@](c1ccc(-c2ccc(N)nc2)nc1)(c1noc(-c2cnn(C(CO)CO)c2)n1)C1CC1` [Example 114, 2-(4-{3-[(R)-1-(6′-Amino-[2,3′]bipyridinyl-5-yl)-1-cyclopropyl-ethyl]-[1,2,4]oxadiazol-5-yl}-pyrazol-1-yl)-propane-1,3-diol]: the IC50 in assay [1] was found to be 850 nM; in assay [2] it was 52 nM.
In the same order, the values of `C[C@@](c1ccc(-c2ccc(N)nc2)nc1)(c1noc(-c2cnn(C3COC3)c2)n1)C1CC1` [Example 115, 5-{(R)-1-Cyclopropyl-1-[5-(1-oxetan-3-yl-1H-pyrazol-4-yl)-[1,2,4]oxadiazol-3-yl]-ethyl}-[2,3′]bipyridinyl-6′-ylamine] are 110 nM and 24 nM.
Take `C[C@](c1ccc(-c2ccc(N)nc2)nc1)(c1noc(-c2cnn(C3COC3)c2)n1)C1CC1` [Example 116, 5-{(S)-1-Cyclopropyl-1-[5-(1-oxetan-3-yl-1H-pyrazol-4-yl)-[1,2,4]oxadiazol-3-yl]-ethyl}-[2,3′]bipyridinyl-6′-ylamine]: the IC50 came out at 2000 nM in assay [1] and 360 nM in assay [2].
For the compound `C[C@@](c1ccc(-c2cnc(N)nc2)nc1)(c1noc(-c2cn[nH]c2)n1)C1CC1` [Example 117, 5-(5-{(R)-1-Cyclopropyl-1-[5-(1H-pyrazol-4-yl)-[1,2,4]oxadiazol-3-yl]-ethyl}-pyridin-2-yl)-pyrimidin-2-ylamine], the IC50 is 86 nM in assay [1] and 8.7 nM in assay [2].
With `Cn1cc(-c2nc(C(C)(c3ccc(-c4ccc(N)nc4)nc3)C3CC3)no2)cn1` (stereo not drawn) [Example 118, 5-{1-Cyclopropyl-1-[5-(1-methyl-1H-pyrazol-4-yl)-[1,2,4]oxadiazol-3-yl]-ethyl}-[2,3′]bipyridinyl-6′-ylamine], the IC50 in assay [1] was determined as 210 nM; in assay [2], 47 nM.
With `CC(C)[C@](C)(c1ccc(-c2cnc(N)[nH]c2=O)nc1)c1noc(-c2cnn(CC(C)(C)O)c2)n1` [Example 119, 2-Amino-5-[5-((R)-1-{5-[1-(2-hydroxy-2-methyl-propyl)-1H-pyrazol-4-yl]-[1,2,4]oxadiazol-3-yl}-1,2-dimethyl-propyl)-pyridin-2-yl]-3H-pyrimidin-4-one], the values for the 50% inhibitory concentration (IC50) in assay [1] and in assay [2] were 2200 nM and 3.4 nM, respectively.
In the case of `CN(C)CCn1cc(-c2nc(C(C)(c3ccc(-c4ccc(N)nc4)nc3)C3CC3)no2)cn1` (stereo not drawn) [Example 120, 5-(1-Cyclopropyl-1-{5-[1-(2-dimethylamino-ethyl)-1H-pyrazol-4-yl]-[1,2,4]oxadiazol-3-yl}-ethyl)-[2,3′]bipyridinyl-6′-ylamine], the IC50 in assay [1] turned out to be 300 nM; in assay [2], 42 nM.
In the same order, the values of `CO[C@H]1CCN(C(=O)Cn2cc(-c3nc([C@@](C)(c4ccc(-c5cnc(N)nc5)nc4)C4CC4)no3)cn2)C1` [Example 121, 2-[4-(3-{(R)-1-[6-(2-Amino-pyrimidin-5-yl)-pyridin-3-yl]-1-cyclopropyl-ethyl}-[1,2,4]oxadiazol-5-yl)-pyrazol-1-yl]-1-((S)-3-methoxy-pyrrolidin-1-yl)-ethanone] are 220 nM and 67 nM.
Taken in the same sequence, the figures for `CN(C)C(=O)Cn1cc(-c2nc([C@@](C)(c3ccc(-c4cnc(N)cn4)nc3)C3CC3)no2)cn1` [Example 122, 2-[4-(3-{(R)-1-[6-(5-Amino-pyrazin-2-yl)-pyridin-3-yl]-1-cyclopropyl-ethyl}-[1,2,4]oxadiazol-5-yl)-pyrazol-1-yl]-N,N-dimethyl-acetamide] were 450 nM and 34 nM.
Taken in the same sequence, the figures for `CN(C)C(=O)Cn1cc(-c2nc([C@](C)(c3ccc(-c4cnc(N)cn4)nc3)C3CC3)no2)cn1` [Example 123, 2-[4-(3-{(S)-1-[6-(5-Amino-pyrazin-2-yl)-pyridin-3-yl]-1-cyclopropyl-ethyl}-[1,2,4]oxadiazol-5-yl)-pyrazol-1-yl]-N,N-dimethyl-acetamide] were 3300 nM and 300 nM.
For the compound `CN(C)CCn1cc(-c2nc([C@@](C)(c3ccc(-c4cnc(N)cn4)nc3)C3CC3)no2)cn1` [Example 124, 5-[5-((R)-1-Cyclopropyl-1-{5-[1-(2-dimethylamino-ethyl)-1H-pyrazol-4-yl]-[1,2,4]oxadiazol-3-yl}-ethyl)-pyridin-2-yl]-pyrazin-2-ylamine], the 50% inhibitory concentration (IC50) in assay [1] is 60 nM; in assay [2] it was 18 nM.
In the same order, the values of `CN(C)CCn1cc(-c2nc([C@](C)(c3ccc(-c4cnc(N)cn4)nc3)C3CC3)no2)cn1` [Example 125, 5-[5-((S)-1-Cyclopropyl-1-{5-[1-(2-dimethylamino-ethyl)-1H-pyrazol-4-yl]-[1,2,4]oxadiazol-3-yl}-ethyl)-pyridin-2-yl]-pyrazin-2-ylamine] are 370 nM and 120 nM.
In the same order, the values of `COCCn1cc(-c2nc([C@@](C)(c3ccc(-c4cnc(N)cn4)nc3)C3CC3)no2)cn1` [Example 126, 5-[5-((R)-1-Cyclopropyl-1-{5-[1-(2-methoxy-ethyl)-1H-pyrazol-4-yl]-[1,2,4]oxadiazol-3-yl}-ethyl)-pyridin-2-yl]-pyrazin-2-ylamine] are 25 nM and 8.8 nM.
Taken in the same sequence, the figures for `COCCn1cc(-c2nc([C@](C)(c3ccc(-c4cnc(N)cn4)nc3)C3CC3)no2)cn1` [Example 127, 5-[5-((S)-1-Cyclopropyl-1-{5-[1-(2-methoxy-ethyl)-1H-pyrazol-4-yl]-[1,2,4]oxadiazol-3-yl}-ethyl)-pyridin-2-yl]-pyrazin-2-ylamine] were 410 nM and 220 nM.
Consider `CC(C)[C@](C)(c1ccc(-c2cnc(N)nc2)nc1)c1noc(-c2cnn(CCS(C)(=O)=O)c2)n1` [Example 128, 5-[5-((R)-1-{5-[1-(2-Methanesulfonyl-ethyl)-1H-pyrazol-4-yl]-[1,2,4]oxadiazol-3-yl}-1,2-dimethyl-propyl)-pyridin-2-yl]-pyrimidin-2-ylamine], for which the IC50 was 270 nM in assay [1] and 10 nM in assay [2].
As to `CC(C)[C@](C)(c1ccc(-c2cnc(N)nc2)nc1)c1noc(-c2cnn(CC#N)c2)n1` [Example 129, [4-(3-{(R)-1-[6-(2-Amino-pyrimidin-5-yl)-pyridin-3-yl]-1,2-dimethyl-propyl}-[1,2,4]oxadiazol-5-yl)-pyrazol-1-yl]-acetonitrile], the values for the IC50 in assay [1] and in assay [2] were 19 nM and 8.1 nM, respectively.
Turning to `CNc1cnc(-c2ccc(C(C)(c3noc(-c4cnn(CC(C)(C)O)c4)n3)C3CC3)cn2)cn1` (stereo not drawn) [Example 130, 1-[4-(3-{1-Cyclopropyl-1-[6-(5-methylamino-pyrazin-2-yl)-pyridin-3-yl]-ethyl}-[1,2,4]oxadiazol-5-yl)-pyrazol-1-yl]-2-methyl-propan-2-ol], the IC50 in assay [1] was found to be 94 nM; in assay [2], 15 nM.
In the same order, the values of `CC(C)[C@](C)(c1ccc(-c2ccc(N)nc2)nc1)c1noc(-c2cnn(C3COC3)c2)n1` [Example 131, 5-{(R)-1,2-Dimethyl-1-[5-(1-oxetan-3-yl-1H-pyrazol-4-yl)-[1,2,4]oxadiazol-3-yl]-propyl}-[2,3′]bipyridinyl-6′-ylamine] are 39 nM and 5.6 nM.
On to `CC(C)[C@](C)(c1ccc(-c2ccc(N)nc2)nc1)c1noc(-c2cnn(CC(=O)N(C)C)c2)n1` [Example 132, 2-(4-{3-[(R)-1-(6′-Amino-[2,3′]bipyridinyl-5-yl)-1,2-dimethyl-propyl]-[1,2,4]oxadiazol-5-yl}-pyrazol-1-yl)-N,N-dimethyl-acetamide], for which the IC50 in assay [1] turned out to be 130 nM; in assay [2], 12 nM.
Taken in the same sequence, the figures for `COCCn1cc(-c2nc([C@@](C)(c3ccc(-c4ccc(N)nc4)nc3)C(C)C)no2)cn1` [Example 133, 5-((R)-1-{5-[1-(2-Methoxy-ethyl)-1H-pyrazol-4-yl]-[1,2,4]oxadiazol-3-yl}-1,2-dimethyl-propyl)-[2,3′]bipyridinyl-6′-ylamine] were 30 nM and 7.5 nM.
Taken in the same sequence, the figures for `C[C@@](c1ccc(-c2cnc(N)nc2)nc1)(c1noc(-c2cnc(N3CCNCC3)cn2)n1)C1CC1` [Example 134, 5-(5-{(R)-1-Cyclopropyl-1-[5-(3,4,5,6-tetrahydro-2H-[1,2′]bipyrazinyl-5′-yl)-[1,2,4]oxadiazol-3-yl]-ethyl}-pyridin-2-yl)-pyrimidin-2-ylamine] were 310 nM and 7.2 nM.
Take `CC(C)[C@](C)(c1ccc(-c2ccc(N)nc2)nc1)c1noc(-c2cnn(CC(C)(C)O)c2)n1` [Example 136, 1-(4-{3-[(R)-1-(6′-Amino-[2,3′]bipyridinyl-5-yl)-1,2-dimethyl-propyl]-[1,2,4]oxadiazol-5-yl}-pyrazol-1-yl)-2-methyl-propan-2-ol]: the results for the IC50 in assay [1] and in assay [2] were 61 nM and 9.9 nM, respectively.
In the same order, the values of `CC(C)[C@](C)(c1ccc(-c2ccc(N)nc2)nc1)c1noc(-c2cnc(N3CCNCC3)cn2)n1` [Example 137, 5-{(R)-1,2-Dimethyl-1-[5-(3,4,5,6-tetrahydro-2H-[1,2′]bipyrazinyl-5′-yl)-[1,2,4]oxadiazol-3-yl]-propyl}-[2,3′]bipyridinyl-6′-ylamine] are 590 nM and 11 nM.
On to `COCCn1cc(-c2nc([C@@](C)(c3ccc(-c4ccc(N)nc4)nc3)C3CC3)no2)cn1` [Example 138, 5-((R)-1-Cyclopropyl-1-{5-[1-(2-methoxy-ethyl)-1H-pyrazol-4-yl]-[1,2,4]oxadiazol-3-yl}-ethyl)-[2,3′]bipyridinyl-6′-ylamine], for which the IC50 in assay [1] was found to be 100 nM; in assay [2], 22 nM.

As usually defined, the IC50 is the point on the concentration scale where inhibition reaches its midpoint.
